Measurements as given in ChEMBL document CHEMBL1201862, “PubChem BioAssay data set” (2004).
Values belong to the compound of their own block, whether it stands above or below them. Active and inactive are the calls of the source.

Experiments:
Bcl-2-related protein A1 = target: T1, Bcl-2-related protein A1 (Mus musculus, UniProt Q07440); format: functional;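 note: confirmatory dose–response counterscreen on Bfl-1, used to check hits from a UBC13 polyubiquitin inhibitor campaign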
T1 sequence (Q07440 whole entry): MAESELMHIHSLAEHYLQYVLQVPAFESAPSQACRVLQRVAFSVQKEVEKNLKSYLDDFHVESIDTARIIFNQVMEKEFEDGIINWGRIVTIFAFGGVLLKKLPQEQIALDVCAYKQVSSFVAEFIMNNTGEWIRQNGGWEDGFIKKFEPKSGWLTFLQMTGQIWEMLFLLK

[1] = target: T2, Ubiquitin-conjugating enzyme E2 N (Homo sapiens, UniProt P61088); format: functional
T2 sequence (P61088 whole entry): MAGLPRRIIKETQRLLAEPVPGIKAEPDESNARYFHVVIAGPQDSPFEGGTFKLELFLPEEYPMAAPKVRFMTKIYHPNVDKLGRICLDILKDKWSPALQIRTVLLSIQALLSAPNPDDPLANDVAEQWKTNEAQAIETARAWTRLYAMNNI

[2] = target: T2, Ubiquitin-conjugating enzyme E2 N; format: functional; remark: listed apart in the source
[3] = target: Serine/threonine-protein phosphatase (Candida dubliniensis (strain CD36 / CBS 7987 / NCPF 3949 / NRRLY-17841) (Yeast), UniProt B9W6M3); test: blockers of CaCl2-induced CDRE-lacZ signaling – S. cerevisiae, luminescence, secondary, dose response (AID 2388); format: functional, cell-based;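 note: yeast reporter cells carrying a calcineurin-responsive lacZ construct stimulated with calcium chloride; luminescent beta-galactosidase reporter signal in whole cells rather than isolated phosphatase activity; potency for inhibition where a drop in reporter signal means calcineurin blockade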
[4] = target: ATP-dependent molecular chaperone HSP82 (Candida albicans (strain WO-1) (Yeast), UniProt C4YTQ8); test: steroid-induced GRE reporter decrease in yeast – S. cerevisiae, luminescence, Hsp90 inhibitor project, dose response (AID 2400); format: functional, cell-based;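 note: beta-galactosidase luminescence from glucocorticoid response element reporter as proxy for Hsp90 function; inhibitor potency where signal loss means Hsp90 inhibition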
Candida albicans [5] = test: resistant Candida growth with fluconazole co-treatment – CaCi-8 strain, Alamar Blue, dry powder, set 3, dose response (AID 488905); format: functional, organism-based
Candida albicans [6] = test: Candida growth inhibition combined with fluconazole – CaCi-2 strain, Alamar Blue, dry powder, set 3, dose response (AID 488907); format: functional, organism-based
[7] = target: Dual specificity protein kinase CLK1 (Homo sapiens, UniProt P49759); test: inhibition of human CLK1 activity – biochemical, cherry-picked samples, selectivity assay for Dyrk1A inhibitor project, dose response (AID 588811)
[8] = target: Cyclin-dependent kinase 2 (Homo sapiens, UniProt P24941); test: inhibition of human CDK2/cyclin A – biochemical, cherry-picked samples, selectivity assay for Dyrk1A inhibitor project, dose response (AID 602127)

Chain of Dual specificity protein kinase CLK1 (P49759 whole entry): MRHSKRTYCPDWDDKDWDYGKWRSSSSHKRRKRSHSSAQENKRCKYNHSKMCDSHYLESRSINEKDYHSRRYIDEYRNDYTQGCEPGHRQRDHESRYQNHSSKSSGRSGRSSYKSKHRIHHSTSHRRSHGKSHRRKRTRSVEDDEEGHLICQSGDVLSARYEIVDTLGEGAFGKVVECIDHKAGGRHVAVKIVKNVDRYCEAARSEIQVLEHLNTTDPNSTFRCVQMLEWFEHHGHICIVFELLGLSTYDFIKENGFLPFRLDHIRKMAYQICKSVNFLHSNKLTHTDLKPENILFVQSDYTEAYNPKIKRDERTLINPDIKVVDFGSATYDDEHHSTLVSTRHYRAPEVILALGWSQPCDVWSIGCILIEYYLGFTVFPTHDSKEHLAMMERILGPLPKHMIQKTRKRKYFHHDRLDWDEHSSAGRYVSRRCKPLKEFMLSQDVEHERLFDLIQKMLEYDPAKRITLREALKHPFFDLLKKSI
Chain of ATP-dependent molecular chaperone HSP82 (C4YTQ8 whole entry): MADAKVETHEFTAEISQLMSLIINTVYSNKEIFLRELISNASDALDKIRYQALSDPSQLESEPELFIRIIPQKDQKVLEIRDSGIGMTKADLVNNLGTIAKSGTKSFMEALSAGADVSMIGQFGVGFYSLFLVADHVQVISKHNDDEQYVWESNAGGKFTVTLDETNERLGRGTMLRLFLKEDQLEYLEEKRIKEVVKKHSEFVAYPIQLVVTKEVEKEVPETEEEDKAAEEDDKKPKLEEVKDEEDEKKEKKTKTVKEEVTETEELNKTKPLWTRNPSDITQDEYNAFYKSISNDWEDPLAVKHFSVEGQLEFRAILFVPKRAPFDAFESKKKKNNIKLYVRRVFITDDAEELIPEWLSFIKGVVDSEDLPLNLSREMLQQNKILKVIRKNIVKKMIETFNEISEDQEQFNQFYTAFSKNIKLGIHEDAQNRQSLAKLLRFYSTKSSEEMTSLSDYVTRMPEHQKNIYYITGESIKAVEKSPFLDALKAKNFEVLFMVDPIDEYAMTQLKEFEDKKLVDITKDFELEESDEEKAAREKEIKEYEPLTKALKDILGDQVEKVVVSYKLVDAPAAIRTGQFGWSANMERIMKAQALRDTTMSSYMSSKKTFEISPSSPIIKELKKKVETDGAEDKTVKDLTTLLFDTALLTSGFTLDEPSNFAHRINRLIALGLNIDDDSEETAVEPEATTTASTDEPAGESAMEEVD
Chain of Serine/threonine-protein phosphatase (B9W6M3 whole entry): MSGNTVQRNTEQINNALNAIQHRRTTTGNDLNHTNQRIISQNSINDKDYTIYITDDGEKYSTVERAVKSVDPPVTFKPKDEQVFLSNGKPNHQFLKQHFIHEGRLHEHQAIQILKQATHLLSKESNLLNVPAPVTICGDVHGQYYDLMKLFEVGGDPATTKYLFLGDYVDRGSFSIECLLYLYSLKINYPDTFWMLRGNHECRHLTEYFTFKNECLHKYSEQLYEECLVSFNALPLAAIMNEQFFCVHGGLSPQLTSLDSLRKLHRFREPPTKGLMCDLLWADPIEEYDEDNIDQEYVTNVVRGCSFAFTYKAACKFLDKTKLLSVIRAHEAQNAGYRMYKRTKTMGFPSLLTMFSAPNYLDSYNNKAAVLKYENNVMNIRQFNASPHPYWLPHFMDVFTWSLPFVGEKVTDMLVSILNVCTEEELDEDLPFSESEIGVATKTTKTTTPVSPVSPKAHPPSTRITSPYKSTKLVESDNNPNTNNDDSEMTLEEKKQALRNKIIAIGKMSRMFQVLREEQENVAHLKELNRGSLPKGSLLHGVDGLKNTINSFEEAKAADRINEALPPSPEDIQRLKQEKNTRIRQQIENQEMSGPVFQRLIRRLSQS

- IC50 (Bcl-2-related protein A1): > 20 µM (inactive)
- IC50 [1]: 9.98 µM (active)
- IC50 [2]: > 20 µM (inactive)
- EC50 [3]: > 180 µM (inactive)
- EC50 [4]: 19.2 µM (active)
SMILES: Fc1cccc(-n2cc(-c3ccccc3)c3c(=S)[nH]cnc32)c1

SMILES: Cc1ccc(C(=O)N2CCN(c3ccccn3)CC2)cc1
- AC50 (Candida albicans [5]): 10.4 µM (active)
- AC50 (Candida albicans [6]): 97.9 nM (active)

- AC50 [7]: 40.2 nM (active)
- AC50 [8]: 3.52 µM (active)
SMILES: c1cncc(CNc2nccc(-c3ccc4[nH]ncc4c3)n2)c1
